Test results: ChEMBL document CHEMBL3885861, “Open TG-GATES”

Organism: Rattus norvegicus
Experiment: Open TG-GATES - Regimen: Single
Format: toxicity, organism-based, Sprague-Dawley
Parameters: regimen Single, gender Male, age 6 weeks
Settings: in vivo, po, route gavage; for APTT / Bas / Eos / Fbg / Hb / Ht / Lym / MCH / MCHC / MCV / Mono / Neu / PT / Plat / RBC / Ret / WBC: tissue Blood; for KIDNEY_L / KIDNEY_R / KIDNEY_TOTAL: tissue Kidney; for LIVER: tissue Liver; for A/G / ALP / ALT / AST / BUN / CRE / Ca / Cl / DBIL / GLC / IP / K / LDH / Na / PL / RALB / TBIL / TC / TG / TP / gamma-GTP: tissue Plasma
[1] = 300 mg/kg, 3 h, dose level Middle
[2] = 300 mg/kg, 6 h, dose level Middle
[3] = 300 mg/kg, 9 h, dose level Middle
[4] = 300 mg/kg, 24 h, dose level Middle
[5] = 1000 mg/kg, 3 h, dose level High
[6] = 1000 mg/kg, 6 h, dose level High
[7] = 1000 mg/kg, 9 h, dose level High
[8] = 1000 mg/kg, 24 h, dose level High

CC(S)C(=O)NCC(=O)O (centres undefined) [TIOPRONIN]
TERMINAL_BW [1]: 211.9 g
APTT [1]: 22.7 s
Bas [1]: 0%
Eos [1]: 0.4%
Fbg [1]: 295.4 mg/dL
Hb [1]: 12.8 g/dL
Ht [1]: 39.7%
Lym [1]: 77.8%
MCH [1]: 20.3 pg
MCHC [1]: 32.2%
MCV [1]: 63 fL
Mono [1]: 2.6%
Neu [1]: 18.4%
PT [1]: 16.8 s
Plat [1]: 116 x10_4/uL
RBC [1]: 631.6 x10_4/ul
Ret [1]: 7.7%
WBC [1]: 76.7 x10_2/uL
KIDNEY_L [1]: 0.9 g
KIDNEY_R [1]: 1 g
KIDNEY_TOTAL [1]: 1.9 g
LIVER [1]: 9.7 g
A/G [1]: 1.2
ALP [1]: 1446.8 IU/L
ALT [1]: 65.2 IU/L
AST [1]: 83.6 IU/L
BUN [1]: 10.8 mg/dL
CRE [1]: 0.1 mg/dL
Ca [1]: 10.7 mg/dL
Cl [1]: 106.2 meq/L
DBIL [1]: 0.002 mg/dL
GLC [1]: 194.8 mg/dL
IP [1]: 7.9 mg/dL
K [1]: 3.9 meq/L
LDH [1]: 169.4 IU/L
Na [1]: 142.2 meq/L
PL [1]: 125.2 mg/dL
RALB [1]: 3 g/dL
TBIL [1]: 0.02 mg/dL
TC [1]: 73.6 mg/dL
TG [1]: 47 mg/dL
TP [1]: 5.4 g/dL
gamma-GTP [1]: 2 IU/L
TERMINAL_BW [2]: 212 g
APTT [2]: 21.2 s
Bas [2]: 0%
Eos [2]: 0.8%
Fbg [2]: 290.4 mg/dL
Hb [2]: 12.6 g/dL
Ht [2]: 38.8%
Lym [2]: 80.4%
MCH [2]: 20.2 pg
MCHC [2]: 32.5%
MCV [2]: 62.2 fL
Mono [2]: 2.6%
Neu [2]: 15.4%
PT [2]: 16.9 s
Plat [2]: 121.4 x10_4/uL
RBC [2]: 625 x10_4/ul
Ret [2]: 8%
WBC [2]: 77.2 x10_2/uL
KIDNEY_L [2]: 0.9 g
KIDNEY_R [2]: 1 g
KIDNEY_TOTAL [2]: 1.9 g
LIVER [2]: 9.2 g
A/G [2]: 1.2
ALP [2]: 1527 IU/L
ALT [2]: 58 IU/L
AST [2]: 73 IU/L
BUN [2]: 8.4 mg/dL
CRE [2]: 0.1 mg/dL
Ca [2]: 10.8 mg/dL
Cl [2]: 107.4 meq/L
DBIL [2]: 0 mg/dL
GLC [2]: 191.6 mg/dL
IP [2]: 9.6 mg/dL
K [2]: 4.4 meq/L
LDH [2]: 154.2 IU/L
Na [2]: 142.2 meq/L
PL [2]: 117.2 mg/dL
RALB [2]: 2.9 g/dL
TBIL [2]: 0.022 mg/dL
TC [2]: 67.2 mg/dL
TG [2]: 59.4 mg/dL
TP [2]: 5.3 g/dL
gamma-GTP [2]: 1.8 IU/L
TERMINAL_BW [3]: 208.1 g
APTT [3]: 23.7 s
Bas [3]: 0%
Eos [3]: 0.4%
Fbg [3]: 293.4 mg/dL
Hb [3]: 12.9 g/dL
Ht [3]: 40.3%
Lym [3]: 77.8%
MCH [3]: 20.7 pg
MCHC [3]: 32.1%
MCV [3]: 64.6 fL
Mono [3]: 2.4%
Neu [3]: 18.6%
PT [3]: 16.3 s
Plat [3]: 118 x10_4/uL
RBC [3]: 624 x10_4/ul
Ret [3]: 7.7%
WBC [3]: 77 x10_2/uL
KIDNEY_L [3]: 0.9 g
KIDNEY_R [3]: 1 g
KIDNEY_TOTAL [3]: 1.9 g
LIVER [3]: 8.1 g
A/G [3]: 1.2
ALP [3]: 1363.8 IU/L
ALT [3]: 52.8 IU/L
AST [3]: 75 IU/L
BUN [3]: 10.6 mg/dL
CRE [3]: 0.1 mg/dL
Ca [3]: 10.6 mg/dL
Cl [3]: 107.4 meq/L
DBIL [3]: 0.008 mg/dL
GLC [3]: 191.4 mg/dL
IP [3]: 9.8 mg/dL
K [3]: 4.2 meq/L
LDH [3]: 194.2 IU/L
Na [3]: 143.2 meq/L
PL [3]: 110.6 mg/dL
RALB [3]: 2.8 g/dL
TBIL [3]: 0.02 mg/dL
TC [3]: 63.4 mg/dL
TG [3]: 42.2 mg/dL
TP [3]: 5.3 g/dL
gamma-GTP [3]: 1.2 IU/L
TERMINAL_BW [4]: 227.3 g
APTT [4]: 21.1 s
Bas [4]: 0%
Eos [4]: 0.8%
Fbg [4]: 312.6 mg/dL
Hb [4]: 12.7 g/dL
Ht [4]: 38.9%
Lym [4]: 80%
MCH [4]: 20.4 pg
MCHC [4]: 32.7%
MCV [4]: 62.2 fL
Mono [4]: 3%
Neu [4]: 15%
PT [4]: 16.1 s
Plat [4]: 113.7 x10_4/uL
RBC [4]: 624.6 x10_4/ul
Ret [4]: 7.4%
WBC [4]: 100.8 x10_2/uL
KIDNEY_L [4]: 1 g
KIDNEY_R [4]: 1 g
KIDNEY_TOTAL [4]: 1.9 g
LIVER [4]: 10.4 g
A/G [4]: 1.2
ALP [4]: 1662.2 IU/L
ALT [4]: 41.8 IU/L
AST [4]: 72.4 IU/L
BUN [4]: 14.6 mg/dL
CRE [4]: 0.2 mg/dL
Ca [4]: 10.8 mg/dL
Cl [4]: 106.4 meq/L
DBIL [4]: 0 mg/dL
GLC [4]: 193.6 mg/dL
IP [4]: 7.6 mg/dL
K [4]: 4.4 meq/L
LDH [4]: 161.6 IU/L
Na [4]: 142.6 meq/L
PL [4]: 143.2 mg/dL
RALB [4]: 3 g/dL
TBIL [4]: 0.018 mg/dL
TC [4]: 81.6 mg/dL
TG [4]: 102.4 mg/dL
TP [4]: 5.6 g/dL
gamma-GTP [4]: 1.2 IU/L
TERMINAL_BW [5]: 213.5 g
APTT [5]: 23 s
Bas [5]: 0%
Eos [5]: 0.4%
Fbg [5]: 307.8 mg/dL
Hb [5]: 13 g/dL
Ht [5]: 40.2%
Lym [5]: 75.8%
MCH [5]: 20.5 pg
MCHC [5]: 32.3%
MCV [5]: 63.5 fL
Mono [5]: 4%
Neu [5]: 18%
PT [5]: 17.1 s
Plat [5]: 120.4 x10_4/uL
RBC [5]: 633.8 x10_4/ul
Ret [5]: 8%
WBC [5]: 75.4 x10_2/uL
KIDNEY_L [5]: 0.9 g
KIDNEY_R [5]: 0.9 g
KIDNEY_TOTAL [5]: 1.8 g
LIVER [5]: 9.2 g
A/G [5]: 1.1
ALP [5]: 1422.8 IU/L
ALT [5]: 95.4 IU/L
AST [5]: 90 IU/L
BUN [5]: 11.2 mg/dL
CRE [5]: 0.1 mg/dL
Ca [5]: 10.4 mg/dL
Cl [5]: 106.8 meq/L
DBIL [5]: 0 mg/dL
GLC [5]: 199.4 mg/dL
IP [5]: 9.1 mg/dL
K [5]: 4 meq/L
LDH [5]: 232.2 IU/L
Na [5]: 141.4 meq/L
PL [5]: 115.4 mg/dL
RALB [5]: 2.8 g/dL
TBIL [5]: 0.008 mg/dL
TC [5]: 69 mg/dL
TG [5]: 52.8 mg/dL
TP [5]: 5.3 g/dL
gamma-GTP [5]: 1.8 IU/L
TERMINAL_BW [6]: 211.1 g
APTT [6]: 23.4 s
Bas [6]: 0%
Eos [6]: 0.4%
Fbg [6]: 291.4 mg/dL
Hb [6]: 12.9 g/dL
Ht [6]: 39.5%
Lym [6]: 76.2%
MCH [6]: 20.3 pg
MCHC [6]: 32.6%
MCV [6]: 62.4 fL
Mono [6]: 3.2%
Neu [6]: 18.6%
PT [6]: 17.6 s
Plat [6]: 120 x10_4/uL
RBC [6]: 632.6 x10_4/ul
Ret [6]: 8.1%
WBC [6]: 99 x10_2/uL
KIDNEY_L [6]: 0.9 g
KIDNEY_R [6]: 0.9 g
KIDNEY_TOTAL [6]: 1.9 g
LIVER [6]: 8.2 g
A/G [6]: 1.2
ALP [6]: 1452 IU/L
ALT [6]: 77.2 IU/L
AST [6]: 78 IU/L
BUN [6]: 9 mg/dL
CRE [6]: 0.1 mg/dL
Ca [6]: 10.3 mg/dL
Cl [6]: 107 meq/L
DBIL [6]: 0.002 mg/dL
GLC [6]: 196 mg/dL
IP [6]: 9.3 mg/dL
K [6]: 4.1 meq/L
LDH [6]: 147.4 IU/L
Na [6]: 140.4 meq/L
PL [6]: 100.4 mg/dL
RALB [6]: 2.8 g/dL
TBIL [6]: 0.016 mg/dL
TC [6]: 59.8 mg/dL
TG [6]: 31.6 mg/dL
TP [6]: 5.2 g/dL
gamma-GTP [6]: 1.8 IU/L
TERMINAL_BW [7]: 211.2 g
APTT [7]: 23.6 s
Bas [7]: 0%
Eos [7]: 0.2%
Fbg [7]: 271.2 mg/dL
Hb [7]: 12.6 g/dL
Ht [7]: 39.2%
Lym [7]: 74.6%
MCH [7]: 20.3 pg
MCHC [7]: 32%
MCV [7]: 63.2 fL
Mono [7]: 1.4%
Neu [7]: 23.4%
PT [7]: 17.6 s
Plat [7]: 123.5 x10_4/uL
RBC [7]: 621.6 x10_4/ul
Ret [7]: 7.4%
WBC [7]: 71.9 x10_2/uL
KIDNEY_L [7]: 1 g
KIDNEY_R [7]: 1 g
KIDNEY_TOTAL [7]: 1.9 g
LIVER [7]: 7.8 g
A/G [7]: 1.2
ALP [7]: 1385.8 IU/L
ALT [7]: 69.4 IU/L
AST [7]: 80.6 IU/L
BUN [7]: 9.4 mg/dL
CRE [7]: 0.1 mg/dL
Ca [7]: 10.5 mg/dL
Cl [7]: 106.8 meq/L
DBIL [7]: 0.006 mg/dL
GLC [7]: 188.2 mg/dL
IP [7]: 9.1 mg/dL
K [7]: 4.3 meq/L
LDH [7]: 160.4 IU/L
Na [7]: 140.8 meq/L
PL [7]: 98.6 mg/dL
RALB [7]: 2.8 g/dL
TBIL [7]: 0.018 mg/dL
TC [7]: 55.6 mg/dL
TG [7]: 40.4 mg/dL
TP [7]: 5.2 g/dL
gamma-GTP [7]: 1.2 IU/L
TERMINAL_BW [8]: 228 g
APTT [8]: 22.3 s
Bas [8]: 0%
Eos [8]: 1%
Fbg [8]: 307.2 mg/dL
Hb [8]: 12.8 g/dL
Ht [8]: 39.1%
Lym [8]: 76.8%
MCH [8]: 20.2 pg
MCHC [8]: 32.6%
MCV [8]: 62.1 fL
Mono [8]: 3.2%
Neu [8]: 18%
PT [8]: 16.2 s
Plat [8]: 115.2 x10_4/uL
RBC [8]: 630.2 x10_4/ul
Ret [8]: 7.7%
WBC [8]: 117.2 x10_2/uL
KIDNEY_L [8]: 1 g
KIDNEY_R [8]: 1 g
KIDNEY_TOTAL [8]: 2 g
LIVER [8]: 10.2 g
A/G [8]: 1.2
ALP [8]: 1503 IU/L
ALT [8]: 47 IU/L
AST [8]: 76.6 IU/L
BUN [8]: 16.2 mg/dL
CRE [8]: 0.2 mg/dL
Ca [8]: 10.8 mg/dL
Cl [8]: 107.4 meq/L
DBIL [8]: 0 mg/dL
GLC [8]: 181.6 mg/dL
IP [8]: 7.4 mg/dL
K [8]: 4.6 meq/L
LDH [8]: 176.2 IU/L
Na [8]: 142.6 meq/L
PL [8]: 138.8 mg/dL
RALB [8]: 2.9 g/dL
TBIL [8]: 0.008 mg/dL
TC [8]: 76.8 mg/dL
TG [8]: 117 mg/dL
TP [8]: 5.4 g/dL
gamma-GTP [8]: 1.4 IU/L
